Test results taken from patent publication US8759334B2, “Compounds useful for the treatment of metabolic and inflammatory diseases” (Galapagos NV, priority 2011, dated 2014).

What follows are compounds tested against T1, GPR43 (Homo sapiens, UniProt O15552) (assay: Calcium mobilization assay with probenecid). Settings: GPR43 stably expressing cells; triggered with sodium acetate at EC80; 2.5 mM probenecid; read-out: GPR43 assay with probenicid IC50.
T1 construct: expressed in transfected cells
T1 sequence (O15552 1-330): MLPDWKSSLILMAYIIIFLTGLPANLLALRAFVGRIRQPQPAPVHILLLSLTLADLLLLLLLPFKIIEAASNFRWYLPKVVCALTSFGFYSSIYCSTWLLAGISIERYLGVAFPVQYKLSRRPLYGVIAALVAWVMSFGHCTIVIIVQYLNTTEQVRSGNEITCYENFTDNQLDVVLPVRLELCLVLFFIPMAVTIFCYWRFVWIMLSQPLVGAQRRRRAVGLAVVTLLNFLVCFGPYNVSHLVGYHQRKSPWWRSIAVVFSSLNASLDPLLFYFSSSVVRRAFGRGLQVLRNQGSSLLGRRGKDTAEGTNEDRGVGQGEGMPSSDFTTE
Format: cell-based
Description: The following assay can be used for determination of GPR43 activation. The assay measures intracellular calcium release induced by activation of GPR43. On day 1, GPR43 stably expressing cells were detached with mild trypsinization (Trypsin, 0.25% with EDTA 4Na, 5× diluted in PBS) centrifuged at 1000 rpm for 5 min and resuspended at 6.000 cells/25 […] medium (DMEM supplemented with 10% FBS, 10 μg/mL puromycin and 1% Pen/Strep). The cells were distributed in poly-D-lysine coated 384 well plates (black with clear bottom, 25 μL/well) and incubated overnight at 37° C. 10% CO2.
On day 2, 25 μL of a fluorescent Ca^2+ indicator (Calcium 4 assay; Molecular Devices) supplemented with 2.5 mM probenecid was added on top of the cells and incubated for 2 h at 37° C. Subsequently, compounds at increasing concentration (10 μL/well) were added to the plate and incubated for 15 min at 37° C.
To measure agonist activity of the compounds, compound was added to the well and the Ca^2+-flux was measured simultaneously to the […] of compound.

| IC50 [nM] | Compound |
| --- | --- |
| 101 to 500 | COC(=O)CCN(Cc1ccc(Cl)cc1)C(=O)C1(C)CCN1C(=O)c1csc2ccccc12 (centres unmarked) [Compound 151, 3-[[1-(Benzo[b]thiophene-3-carbonyl)-2-methyl-azetidine-2-carbonyl]-(4-chloro-benzyl)-amino]-propionic acid methyl ester] |
| 101 to 500 | CCOC(=O)CCCN(Cc1ccc2cn[nH]c2c1)C(=O)C1(C)CCN1C(=O)Cc1coc2ccccc12 (centres unmarked) [Compound 152, 4-[[1-(2-Benzofuran-3-yl-acetyl)-2-methyl-azetidine-2-carbonyl]-(1H-indazol-6-ylmethyl)-amino]-butyric acid ethyl ester] |
| 101 to 500 | CCOC(=O)CCCN(Cc1ccc2cn[nH]c2c1)C(=O)C1(C)CCN1C(=O)c1csc2ccccc12 (centres unmarked) [Compound 153, 4-[[1-(Benzo[b]thiophene-3-carbonyl)-2-methyl-azetidine-2-carbonyl]-(1H-indazol-6-ylmethyl)-amino]-butyric acid ethyl ester] |
| > 1000 | CC1(C(=O)N(CCC(=O)O)Cc2ccc(Cl)cc2)CCN1C(=O)Cc1coc2ccccc12 (centres unmarked) [Compound 154, 3-[[1-(2-Benzofuran-3-yl-acetyl)-2-methyl-azetidine-2-carbonyl]-(4-chloro-benzyl)-amino]-propionic acid] |
| 101 to 500 | CC1(C(=O)N(CCCC(=O)O)Cc2ccc3cn[nH]c3c2)CCN1C(=O)Cc1coc2ccccc12 (centres unmarked) [Compound 156, 4-[[1-(2-Benzofuran-3-yl-acetyl)-2-methyl-azetidine-2-carbonyl]-(1H-indazol-6-ylmethyl)-amino]-butyric acid] |
| 101 to 500 | CC1(C(=O)N(CCCC(N)=O)Cc2ccc(Cl)cc2)CCN1C(=O)c1csc2ccccc12 (centres unmarked) [Compound 158, 1-(Benzo[b]thiophene-3-carbonyl)-2-methyl-azetidine-2-carboxylic acid (3-carbamoyl-propyl)-(4-chloro-benzyl)-amide] |
| 501 to 1000 | Cc1cc(C)cc(CC(=O)N2CCC2(C)C(=O)N(CCCC(=O)O)Cc2ccc(C(F)(F)F)cc2)c1 (centres unmarked) [Compound 159, 4-[{1-[2-(3,5-Dimethyl-phenyl)-acetyl]-2-methyl-azetidine-2-carbonyl}-(4-trifluoromethyl-benzyl)-amino]-butyric acid] |
| 101 to 500 | CC1(C(=O)N(CCCC(=O)O)Cc2ccc(C(F)(F)F)cc2)CCN1C(=O)Cc1coc2ccccc12 (centres unmarked) [Compound 160, 4-[[1-(2-Benzofuran-3-yl-acetyl)-2-methyl-azetidine-2-carbonyl]-(4-trifluoromethyl-benzyl)-amino]-butyric acid] |
| > 1000 | Cc1cc(C)cc(CC(=O)N2CCC2(C)C(=O)N(CCCC(=O)O)Cc2cccc(Cl)c2)c1 (centres unmarked) [Compound 161, 4-((3-Chloro-benzyl)-{1-[2-(3,5-dimethyl-phenyl)-acetyl]-2-methyl-azetidine-2-carbonyl}-amino)-butyric acid] |
| 501 to 1000 | Cc1cc(C)cc(CC(=O)N2CCC2(C)C(=O)N(CCCC(=O)O)Cc2ccc3ccoc3c2)c1 (centres unmarked) [Compound 162, 4-(Benzofuran-6-ylmethyl-{1-[2-(3,5-dimethyl-phenyl)-acetyl]-2-methyl-azetidine-2-carbonyl}-amino)-butyric acid] |
| 101 to 500 | CC1(C(=O)N(CCCC(=O)O)Cc2ccc3ccoc3c2)CCN1C(=O)c1csc2ccccc12 (centres unmarked) [Compound 163, 4-{[1-(Benzo[b]thiophene-3-carbonyl)-2-methyl-azetidine-2-carbonyl]-benzofuran-6-ylmethyl-amino}-butyric acid] |
| 101 to 500 | CC1(C(=O)N(CCCC(=O)O)Cc2ccc3ccoc3c2)CCN1C(=O)Cc1coc2ccccc12 (centres unmarked) [Compound 164, 4-{[1-(2-Benzofuran-3-yl-acetyl)-2-methyl-azetidine-2-carbonyl]-benzofuran-6-ylmethyl-amino}-butyric acid] |
| 501 to 1000 | CCOC(=O)CCCN(Cc1ccc(C(F)(F)F)cc1)C(=O)C1(C)CCN1C(=O)Cc1cc(C)cc(C)c1 (centres unmarked) [Compound 165, 4-[{1-[2-(3,5-Dimethyl-phenyl)-acetyl]-2-methyl-azetidine-2-carbonyl}-(4-trifluoromethyl-benzyl)-amino]-butyric acid ethyl ester] |
| 101 to 500 | CC1(C(=O)N(CCCC(N)=O)Cc2ccc(Cl)cc2)CCN1C(=O)Cc1coc2ccccc12 (centres unmarked) [Compound 166, 1-(2-Benzofuran-3-yl-acetyl)-2-methyl-azetidine-2-carboxylic acid (3-carbamoyl-propyl)-(4-chloro-benzyl)-amide] |
| > 1000 | CCOC(=O)CCCN(Cc1ccc(C(F)(F)F)cc1)C(=O)C1(C)CCN1C(=O)Cc1coc2ccccc12 (centres unmarked) [Compound 167, 4-[[1-(2-Benzofuran-3-yl-acetyl)-2-methyl-azetidine-2-carbonyl]-(4-trifluoromethyl-benzyl)-amino]-butyric acid ethyl ester] |
| > 1000 | COc1ccc(CNS(=O)(=O)CCCN(Cc2ccc(Cl)cc2)C(=O)C2(C)CCN2C(=O)Cc2cc(C)cc(C)c2)c(OC)c1 (centres unmarked) [Compound 168, 1-[2-(3,5-Dimethyl-phenyl)-acetyl]-2-methyl-azetidine-2-carboxylic acid (4-chloro-benzyl)-[3-(2,4-dimethoxy-benzylsulfamoyl)-propyl]-amide] |
| 101 to 500 | CC1(C(=O)N(CCC(=O)O)Cc2cccc(Cl)c2)CCN1C(=O)Cc1csc2ccccc12 (centres unmarked) [Compound 170, 3-[[1-(2-Benzo[b]thiophen-3-yl-acetyl)-2-methyl-azetidine-2-carbonyl]-(3-chloro-benzyl)-amino]-propionic acid] |
| 101 to 500 | Cc1cc(C)cc(CC(=O)N2CCC2(C)C(=O)N(CCCS(N)(=O)=O)Cc2ccc(Cl)cc2)c1 (centres unmarked) [Compound 171, 1-[2-(3,5-Dimethyl-phenyl)-acetyl]-2-methyl-azetidine-2-carboxylic acid (4-chloro-benzyl)-(3-sulfamoyl-propyl)-amide] |
| 101 to 500 | COC(=O)CCN(Cc1cccc(Cl)c1)C(=O)C1(C)CCN1C(=O)c1csc2ccccc12 (centres unmarked) [Compound 172, 3-[[1-(Benzo[b]thiophene-3-carbonyl)-2-methyl-azetidine-2-carbonyl]-(3-chloro-benzyl)-amino]-propionic acid methyl ester] |
| 101 to 500 | COC(=O)CCN(Cc1cccc(Cl)c1)C(=O)C1(C)CCN1C(=O)Cc1csc2ccccc12 (centres unmarked) [Compound 173, 3-[[1-(2-Benzo[b]thiophen-3-yl-acetyl)-2-methyl-azetidine-2-carbonyl]-(3-chloro-benzyl)-amino]-propionic acid methyl ester] |
| 101 to 500 | CNS(=O)(=O)CCCN(Cc1ccc(Cl)cc1)C(=O)C1(C)CCN1C(=O)Cc1cc(C)cc(C)c1 (centres unmarked) [Compound 174, 1-[2-(3,5-Dimethyl-phenyl)-acetyl]-2-methyl-azetidine-2-carboxylic acid (4-chloro-benzyl)-(3-methylsulfamoyl-propyl)-amide] |
| 0.01 to 100 | COC(=O)CCN(Cc1ccc2cn[nH]c2c1)C(=O)C1(C)CCN1C(=O)Cc1csc2ccccc12 (centres unmarked) [Compound 175, 3-[[1-(2-Benzo[b]thiophen-3-yl-acetyl)-2-methyl-azetidine-2-carbonyl]-(1H-indazol-6-ylmethyl)-amino]-propionic acid methyl ester] |
| 101 to 500 | CC1(C(=O)N(CCC(=O)O)Cc2ccc3cn[nH]c3c2)CCN1C(=O)Cc1csc2ccccc12 (centres unmarked) [Compound 176, 3-[[1-(2-Benzo[b]thiophen-3-yl-acetyl)-2-methyl-azetidine-2-carbonyl]-(1H-indazol-6-ylmethyl)-amino]-propionic acid] |
